Measurements as given in ChEMBL document CHEMBL3507680, “University of Dundee, Gates Library screen for HepG2 cell viability”.

Assay: Human HepG2 cell viability assay in 384 well format
Type: toxicity, cell-based
Set-up: dose 125 nL, time 70.5 hour; concentration not given beside the values
Settings: HepG2 cells, read-out: Inhibition

Compound	cytotoxicity at 70.5 h [%]
CCCn1nccc1C(=O)N1CCCN(CCCc2ccccc2)CC1	-7.2
CN(C)c1ncnc2c1CCN(C(=O)CN1CCCCC1)C2	-7.37
Cc1nc2n(n1)CC(NCC(=O)Nc1cc(C)on1)CC2 (stereo not drawn)	-6.78
N[C@H]1CCCN(S(=O)(=O)c2ccc(C(=O)NCC(F)F)cc2)C1	25.2
O=C(c1ncoc1-c1ccco1)N(Cc1ccco1)CC1CCCO1 (stereo not drawn)	-3.69
O=C(c1ccc(O)cc1)N1CCN(C(=O)c2ccc3c(c2)COC3)CC1	2.44
CCc1ccc(C(=O)N2CCC(N(C)C(=O)OC(C)(C)C)C2)o1 (stereo not drawn)	0.0812
O=C(NCCc1csc(-c2cnccn2)n1)c1cnn[nH]1	21.3
O=C1CCC2(CCNCC2)CN1Cc1nnc2ccccn12	-5.01
CN1CC[C@]2(CN(Cc3nccs3)C[C@H]2c2ccccc2)C1=O	4.14
COc1ccc(CN2CCOC[C@H]2c2nc(-c3ccncc3)c[nH]2)cc1	-1.1
OCCNc1nccc(-c2c[nH]nc2-c2ccncc2)n1	-2.75
O=C(NCCN1CCCS1(=O)=O)c1scnc1Cl	-24.6
Nc1ccnc(N2CCC(CCc3ccccc3)(C(=O)O)CC2)n1	14.5
Cc1ccc(CNC(C)c2ccc3[nH]c(=O)[nH]c3c2)s1 (stereo not drawn)	-1.82
CC(C)C(C)NC(=O)CNc1cc2c(cc1Cl)NC(=O)CO2 (stereo not drawn)	6.71
CC[C@H](C)[C@H](NC(=O)c1ccc(-n2cnnn2)cc1)C(=O)OC	10.1
Cn1cccc1C(=O)N1CC2(CCN(C(=O)c3cccnc3)C2)C1	-7.36
Cc1nnc(CN(Cc2ccc(Cl)c(Cl)c2)C(C)C)o1	-14
CCC(=O)Nc1cccc(OCC(=O)N[C@@H]2C[C@H]3CC[C@@H]2C3)c1	-22.4
Cc1cc(CN2CCc3c(CNc4ncccn4)cncc3C2)oc1C	-0.479
CC(C(=O)N1CCc2ccccc2C1)n1cc(Br)cn1 (stereo not drawn)	-13.3
CC(NC(=O)N1CCC(n2cncn2)CC1)c1ccc(F)cc1 (stereo not drawn)	-6.99

Compound	cytotoxicity at 70.5 h [%]
CNC(=O)c1cc2c(nc1NCC1CC1)CCN(c1ncccn1)CC2	-20.8
CN1CCN(C(=O)CCn2nnc3ccccc32)CC(C(N)=O)C1 (stereo not drawn)	-1.08
Cc1ccc(N2CCC3(CCN(C(N)=O)CC3)CC2)nn1	-27.1
Cn1cccc1C(=O)N1CCCC(Cn2cc(CO)nn2)C1 (stereo not drawn)	-2.41
O=C(c1ccc[nH]1)N1CCN(C(c2ccccc2)C(F)(F)F)CC1 (stereo not drawn)	-7.16
Cc1cc(C)n(CC2CCCN2C(=O)c2cn[nH]c2C)n1 (stereo not drawn)	-1.06
COc1ccc(CCCNCc2c(C)nn(C)c2N(C)C)cc1OC	4.5
O=C(NC1CCC1)[C@H]1C[C@@H]2CN(CC3CC3)C[C@H]1O2	-0.535
c1cncc(CN2CCc3c(nnn3CC3CC3)C2COCC2CC2)c1 (stereo not drawn)	-14.9
Cc1cc(CN2CC[C@H]3[C@H]2CCN3C)oc1C	-5.26
Cc1ncc(CN(C)C)c(C2CCCN2c2ncccn2)n1 (stereo not drawn)	-7.95
O=C(NCCN1CCOCC1)c1ccc(OCc2ccccc2)nc1	-1.05
Cc1ccccc1C1CCN(CCNC(=O)CS(C)(=O)=O)C1 (stereo not drawn)	-4.32
Cc1nc2ccccc2n1Cc1cc(C(=O)N(C)C2CCOC2)n[nH]1 (stereo not drawn)	-12.8
COCCNC(=O)c1cc(C2CC2)nc2onc(C3CCNC3)c12 (stereo not drawn)	-7.31
CCOc1ccc(S(=O)(=O)Nc2cnc(OC)nc2OC)cc1	9.83
COCCC(=O)N1CCn2c(COCC3CC3)cnc2C1C (stereo not drawn)	-0.0494
CS(=O)(=O)CC1(CNc2c(C#N)cnc3ccc(Cl)cc23)CC1	-5.19
Cc1nn(C)c(Cl)c1C1CCCN1C(=O)c1ccncc1 (stereo not drawn)	0.652
CC(C)N1C[C@@H]2CN(C(=O)NCc3ccccc3)CCC[C@]2(C(=O)O)C1	-4.97
CC1CCCN(S(=O)(=O)NCCCn2ccc3ccccc32)C1 (stereo not drawn)	-9.54
Cc1cc(-c2cnc(NCc3cccnc3)nc2C(C)(C)C)on1	-18.2
Cc1cc(C2CCCN2C(=O)CN2CCc3ccccc32)on1 (stereo not drawn)	-0.619

Compound	cytotoxicity at 70.5 h [%]
N#Cc1cccnc1N1CCC(c2nc(C(F)(F)F)c[nH]2)CC1	-15.7
CC(=O)NCCCn1ncc2c(C)cccc21	-10.8
CN(CCN1CCCC1=O)CC(c1cccs1)N1CCOCC1 (stereo not drawn)	-11.7
CNS(=O)(=O)c1ccc(C(=O)N2CCCC2Cc2ccccc2)o1 (stereo not drawn)	1.08
COc1ccc(-c2nc(CN(C)Cc3nncn3C)c(C)o2)c(C)c1C	5.19
COCC(=O)N1CC[C@@H]2CN(Cc3cccc(Cl)c3)S(=O)(=O)[C@@H]2CC1	24.3
CNc1nc(C(=O)N2CCC3(CCCN(CC4CC4)C3=O)C2)cs1 (stereo not drawn)	-1.68
COc1ccc2[nH]c(C[C@@H]3C[C@@H](C(C)C)[C@H](CN(C)C)C=C3C)nc2c1	-3.19
CSc1nccc(-c2cccc(-c3ccn(CC4COCCO4)n3)c2)n1 (stereo not drawn)	-13.8
Cc1ccc(OCC(C)NS(=O)(=O)N(C)C)cc1 (stereo not drawn)	-5.84
N#Cc1ccc(CN2CCN(c3cncc(Cl)n3)CC2=O)cc1	-4.86
NCc1cn(-c2ccccc2C(=O)NCc2ccccc2)cn1	-18.9
Cc1cc(C)n(CC2CCCN2Cc2ncc(C(C)(C)C)o2)n1 (stereo not drawn)	-5.22
Cn1cnc2c1CCN(C(C(=O)N1CCCCC1)c1ccccc1)C2 (stereo not drawn)	-6.79
O=C1N(CC2CC2)CCC12CCN(CC1CC1)CC2	-6.9
CCc1cnc2c(c1Nc1ccc3c(c1)OCO3)c(=O)n(C)c(=O)n2C	-1.57
Cc1cc(N2CCC(n3cc(CN4CCNCC4)nn3)CC2)ccn1	24.4
COc1ccc(N2CCN(C(=O)Cn3nc(C)c(C)c3C)C(C)C2)cc1 (stereo not drawn)	6.36
COc1cccc(OCC2CCCN(C(=O)CCc3cc(O)no3)C2)c1 (stereo not drawn)	-21.1
COc1ccc(C(=O)C2CCCN(Cc3ccc(C)o3)C2)c(OC)c1 (stereo not drawn)	-4.07
Cc1ccc(S(N)(=O)=O)cc1C(=O)NC1CCN(C2CC2)CC1	21.9
CC/N=c1\nc(NCC)nc2n1C(O)(Nc1cc(Cl)ccc1Cl)CS2 (stereo not drawn)	17.8
CC(=O)N[C@@H]1CN(C(=O)CC2CCOCC2)C[C@H]1O	-1.61

Compound	cytotoxicity at 70.5 h [%]
Cn1nnc2c(sc3nc(N4CCOCC4)c4c(c32)CCC4)c1=O	-16
CSc1nc2ncc3c(=O)n(CCN4CCCCC4)ccc3n2n1	-4.31
COC(=O)CN(C(=O)c1cc(C)c(F)cc1F)c1cccc(C)n1	-5.14
Cc1nc(O)cc(CN2CC=C(c3cnn(C(C)(C)C)c3)CC2)n1	-10.5
NC(=O)C1CN(C(=O)Nc2ccccc2-c2cccs2)CCO1 (stereo not drawn)	-1.53
CC(=O)N1CCCC(C(=O)N2Cc3nc(C)n(C)c(=O)c3C2)C1 (stereo not drawn)	-3.08
CN(Cc1cccnc1)c1nccc(N2CCN[C@H]3CS(=O)(=O)C[C@H]32)n1	-3.96
O=C(COc1cc(Cl)cc(Cl)c1)NCc1nncn1C1CC1	-8.34
CC(C)(CCS(C)(=O)=O)CNc1ccc2ccc(F)cc2n1	-2.27
CC(=O)N(C)C(c1cccc(F)c1)c1ccccn1 (stereo not drawn)	8.62
NC(=O)CCCNC(=O)Cc1cccc(I)c1	-1.69
Fc1ccc(-n2cccn2)c(CN2CCCCC2CCn2ccnc2)c1 (stereo not drawn)	1.83
COC(C)(CNS(=O)(=O)c1cn(C)cn1)c1ccccc1F (stereo not drawn)	9.94
O=C(c1cccc2c1OCCO2)N1CCCC1c1noc(C2CC2)n1 (stereo not drawn)	-2.14
CCN1C[C@H]2CCN(C(=O)C3CCCO3)CC[C@H]2S1(=O)=O (stereo partly drawn)	-7.09
Cc1cc(C)c(CNCC(O)c2ccc(F)c(F)c2)c(C)c1 (stereo not drawn)	-11.4
CC1(C)COCCN1C(=O)CCc1nc(-c2ccc(Cl)cc2)no1	-20
CCOc1ncccc1NC(=O)c1sccc1C	-7.66
Cc1cccc(C)c1OC1CN(Cc2cnc(N3CCOCC3)nc2)C1	-7
Cn1cccc1C(=O)NCc1cnc2n1CCN(C(=O)N1CCCC1)C2	-4.52
CCc1nc(CN2CCC(C(=O)N(C)C)CC2)cs1	0.679
CCc1nnc(CNC(=O)CCC2CCCN(C)C2)s1 (stereo not drawn)	-0.522
Cc1nn(CCO)c(C)c1CNC1CCC(C)(C)c2ccccc21 (stereo not drawn)	-5.72

Compound	cytotoxicity at 70.5 h [%]
CCOc1ccnc(N2CCN(C(=O)C(C)(C)C#N)CC2)n1	-12.5
CCOc1ncccc1CNC(=O)c1csc(Br)c1	-8.48
Cc1nn(CC(=O)Nc2ccon2)c(C)c1Br	-11.8
CN1CCCC(N2CCN(c3nc4ccccn4c3C#N)CC2)C1 (stereo not drawn)	11.1
O=C(NC1CCC1)C1CCC2(CN(C(=O)c3ccco3)C2)O1 (stereo not drawn)	-13.3
COCCN1CCC2(CCN(Cc3nccs3)CC2)C1=O	-8.69
CCc1nnc(CN2CCc3[nH]c(-c4ccc(OC)cc4)nc3C2)o1	-9.04
CN(Cc1ccccc1)c1ncccc1CNC1CCSCC1	-2.31
CCn1cnnc1CNC(=O)NC(C)c1ccccn1 (stereo not drawn)	9.12
CC(NC(=O)N(C)Cc1ccsc1)c1ccc2c(c1)OCO2 (stereo not drawn)	-14.1
Cc1cc(NC(=O)c2nc(N3CCCC3)ncc2Cl)ccc1Br	-5.96
CCCc1cncnc1N1CCCC2(CCC(=O)N(C3CCCC3)C2)C1 (stereo not drawn)	-9.78
COc1c2ccc(C(=O)NCCCn3ncccc3=O)cc2nn1C	13.9
Cc1cnc(N2CCC3(CCCN(c4ccc(C)nn4)C3)C2)nc1 (stereo not drawn)	14.4
O=S(=O)(N1CCCC1)N1CCCCC1CCc1ccccc1 (stereo not drawn)	-5.36
CCS(=O)(=O)N1CCC2(CN(c3cccc(F)c3)C(=O)CN2C)C1 (stereo not drawn)	-8.93
COc1ccc(COCC(O)CNC(=O)Cc2ccc(C)cc2)cc1 (stereo not drawn)	-2.43
CS(=O)(=O)CCN(Cc1cccc(O)c1)C1CCC(O)CC1 (stereo not drawn)	-4.64
CN(Cc1nnc(C2CC2)o1)C(c1ccc(F)cc1)c1cccnc1 (stereo not drawn)	0.0755
N#Cc1ccc(F)c(CNc2ccc(F)cc2OCCO)c1	16.6
O=S(=O)(Nc1cnc(N2CCCC2)nc1)c1ccc(C(F)(F)F)cc1	31.4
